Source: ChEMBL document CHEMBL5120829, “Discovery and structural optimization of potent epidermal growth factor receptor (EGFR) inhibitors against L858R/T790M/C797S resistance mutation for lung cancer treatment” (Eur J Med Chem, 2022)

What was measured:
[1] = system: Epidermal growth factor receptor (Homo sapiens), P00533 [L858R,T790M,C797S]; assay: Inhibition of EGFR L858R/T790M/C797S mutant (unknown origin) at 1 uM relative to control
[2] = system: Epidermal growth factor receptor (Homo sapiens), P00533 [L858R,T790M,C797S]; assay: Inhibition of EGFR L858R/T790M/C797S mutant (unknown origin) at 0.5 uM relative to control
[3] = system: PC-9; assay: Induction of apoptosis in human PC-9 cells expressing EGFR L858R/T790M/C797S mutant assessed as dead cells at 0.25 uM incubated for 24 hrs by annexin-V/propidium iodide staining-based flow cytometry analysis (reference value: 0.43 %); format: functional
[4] = system: PC-9; assay: Induction of apoptosis in human PC-9 cells expressing EGFR L858R/T790M/C797S mutant assessed as viable cells at 0.25 uM incubated for 24 hrs by annexin-V/propidium iodide staining-based flow cytometry analysis (reference value: 99.1 %); format: functional
[5] = system: A549; assay: Antiproliferative activity against human A549 cells assessed as inhibition of cell growth incubated for 72 hrs by CCK-8 assay; format: functional, cell-based; conditions: A549, 72 h
[6] = system: PC-9; assay: Antiproliferative activity against human PC-9 cells expressing EGFR L858R/T790M/C797S mutant assessed as inhibition of cell growth incubated for 72 hrs by CCK-8 assay; format: functional, cell-based; conditions: PC-9, 72 h
[7] = system: PC-9; assay: Induction of apoptosis in human PC-9 cells expressing EGFR L858R/T790M/C797S mutant assessed as late apoptotic cells at 0.25 uM incubated for 24 hrs by annexin-V/propidium iodide staining-based flow cytometry analysis (reference value: 0.14 %); format: functional
[8] = system: PC-9; assay: Induction of apoptosis in human PC-9 cells expressing EGFR L858R/T790M/C797S mutant assessed as early apoptotic cells at 0.25 uM incubated for 24 hrs by annexin-V/propidium iodide staining-based flow cytometry analysis (reference value: 0.3 %); format: functional
[9] = system: A-431; assay: Antiproliferative activity against human A-431 cells assessed as inhibition of cell growth incubated for 72 hrs by CCK-8 assay; format: functional, cell-based; conditions: A-431, 72 h
[10] = target: Epidermal growth factor receptor (Homo sapiens, UniProt P00533, C797S/L858R/T790M); assay: Inhibition of EGFR L858R/T790M/C797S mutant (unknown origin)
Chain of Epidermal growth factor receptor (P00533 25-1210 T790M/C797S/L858R limits assumed): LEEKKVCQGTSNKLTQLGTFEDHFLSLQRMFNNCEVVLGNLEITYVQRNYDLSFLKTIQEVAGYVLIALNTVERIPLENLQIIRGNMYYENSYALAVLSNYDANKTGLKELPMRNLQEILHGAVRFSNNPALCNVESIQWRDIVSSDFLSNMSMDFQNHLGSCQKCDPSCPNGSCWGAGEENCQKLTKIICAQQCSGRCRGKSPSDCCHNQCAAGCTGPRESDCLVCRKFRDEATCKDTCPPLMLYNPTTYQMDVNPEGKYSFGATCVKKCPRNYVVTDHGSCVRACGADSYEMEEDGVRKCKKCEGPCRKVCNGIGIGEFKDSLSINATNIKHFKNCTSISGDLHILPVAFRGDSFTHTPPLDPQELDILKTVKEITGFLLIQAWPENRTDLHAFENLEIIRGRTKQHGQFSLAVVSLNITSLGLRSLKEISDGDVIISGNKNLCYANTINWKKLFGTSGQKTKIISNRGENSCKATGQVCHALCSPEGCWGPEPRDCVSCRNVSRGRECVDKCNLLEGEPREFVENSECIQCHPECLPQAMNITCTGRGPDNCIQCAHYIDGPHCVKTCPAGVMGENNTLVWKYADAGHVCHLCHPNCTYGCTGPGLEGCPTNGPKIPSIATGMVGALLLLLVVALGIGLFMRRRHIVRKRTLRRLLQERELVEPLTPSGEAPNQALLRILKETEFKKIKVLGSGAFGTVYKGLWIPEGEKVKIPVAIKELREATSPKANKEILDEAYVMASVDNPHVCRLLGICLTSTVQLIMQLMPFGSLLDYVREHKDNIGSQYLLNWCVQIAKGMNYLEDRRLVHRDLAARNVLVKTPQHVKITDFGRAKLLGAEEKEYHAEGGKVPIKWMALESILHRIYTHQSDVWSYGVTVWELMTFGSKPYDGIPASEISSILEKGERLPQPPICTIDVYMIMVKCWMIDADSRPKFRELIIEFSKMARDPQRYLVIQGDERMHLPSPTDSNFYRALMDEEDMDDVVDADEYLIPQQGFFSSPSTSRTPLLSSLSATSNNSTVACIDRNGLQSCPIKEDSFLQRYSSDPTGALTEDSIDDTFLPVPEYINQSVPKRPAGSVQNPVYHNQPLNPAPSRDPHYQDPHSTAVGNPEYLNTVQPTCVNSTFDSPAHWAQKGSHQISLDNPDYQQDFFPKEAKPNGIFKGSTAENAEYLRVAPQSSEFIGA

Chain of Epidermal growth factor receptor (Homo sapiens), P00533 [L858R,T790M,C797S] (P00533 whole entry T790M/C797S/L858R): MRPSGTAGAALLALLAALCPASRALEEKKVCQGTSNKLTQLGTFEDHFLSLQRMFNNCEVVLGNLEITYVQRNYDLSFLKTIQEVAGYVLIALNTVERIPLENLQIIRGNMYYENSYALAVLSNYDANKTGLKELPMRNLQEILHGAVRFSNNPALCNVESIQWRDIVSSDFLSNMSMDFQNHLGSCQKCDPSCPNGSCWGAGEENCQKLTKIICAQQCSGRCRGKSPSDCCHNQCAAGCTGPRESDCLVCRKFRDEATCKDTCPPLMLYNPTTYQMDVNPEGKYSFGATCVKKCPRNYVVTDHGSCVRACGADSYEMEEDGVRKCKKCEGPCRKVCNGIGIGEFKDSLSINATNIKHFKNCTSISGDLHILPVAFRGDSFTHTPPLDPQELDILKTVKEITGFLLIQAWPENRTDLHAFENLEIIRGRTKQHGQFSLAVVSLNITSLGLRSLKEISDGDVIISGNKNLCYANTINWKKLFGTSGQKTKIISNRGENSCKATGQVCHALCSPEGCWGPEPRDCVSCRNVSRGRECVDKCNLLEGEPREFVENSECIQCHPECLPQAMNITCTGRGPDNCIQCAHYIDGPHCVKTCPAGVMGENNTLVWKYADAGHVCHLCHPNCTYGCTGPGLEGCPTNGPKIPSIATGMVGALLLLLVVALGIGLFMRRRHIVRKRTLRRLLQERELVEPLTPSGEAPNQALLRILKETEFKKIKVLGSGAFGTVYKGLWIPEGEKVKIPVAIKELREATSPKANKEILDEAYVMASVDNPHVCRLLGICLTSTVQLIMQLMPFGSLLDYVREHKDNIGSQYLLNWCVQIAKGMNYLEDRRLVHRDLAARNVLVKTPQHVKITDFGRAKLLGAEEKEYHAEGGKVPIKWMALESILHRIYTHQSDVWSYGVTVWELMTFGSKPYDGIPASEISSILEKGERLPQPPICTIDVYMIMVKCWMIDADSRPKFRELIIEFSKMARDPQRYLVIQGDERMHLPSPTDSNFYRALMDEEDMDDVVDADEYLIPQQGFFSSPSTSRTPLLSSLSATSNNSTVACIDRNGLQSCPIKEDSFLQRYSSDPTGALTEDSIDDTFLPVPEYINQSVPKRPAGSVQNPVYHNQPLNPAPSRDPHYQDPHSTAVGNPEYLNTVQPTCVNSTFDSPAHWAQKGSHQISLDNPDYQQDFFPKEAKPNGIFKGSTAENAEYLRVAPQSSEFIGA

| SMILES | inhibition [1] [%] | inhibition [2] [%] | also measured |
| --- | --- | --- | --- |
| C=CC(=O)Nc1cc(Nc2ncc3cc(C(=O)Nc4ccc5c(c4)OCO5)n(C4CCCC4)c3n2)c(OC)cc1N(C)CCN(C)C | 13 | 0.5 |  |
| C=CC(=O)Nc1cc(Nc2ncc3cc(C(=O)Nc4cccc(O)c4)n(C4CCCC4)c3n2)c(OC)cc1N(C)CCN(C)C | 22 | 5.2 |  |
| C=CC(=O)Nc1cc(Nc2ncc3cc(C(=O)Nc4ccc(OC)cc4)[nH]c3n2)c(OC)cc1N(C)CCN(C)C | 9.5 | 2.8 |  |
| C=CC(=O)Nc1cc(Nc2ncc3cc(C(=O)Nc4ccccc4)n(C4CCCC4)c3n2)c(OC)cc1N1CCN(C(C)C)CC1 | 21 | 18 |  |
| C=CC(=O)Nc1cc(Nc2ncc3cc(C(=O)Nc4cccc(C)c4)n(C4CCCC4)c3n2)c(OC)cc1N(C)CCN(C)C | 14 | 6.7 |  |
| C=CC(=O)Nc1cc(Nc2ncc3cc(C(=O)Nc4cc(OC)c(OC)c(OC)c4)n(C4CCCC4)c3n2)c(OC)cc1N(C)CCN(C)C | 5.3 | 3.1 |  |
| C=CC(=O)Nc1cc(Nc2ncc3cc(C(=O)Nc4ccc(OC)c(OC)c4)n(C4CCCC4)c3n2)c(OC)cc1N(C)CCN(C)C | 8.7 | 7.3 |  |
| C=CC(=O)Nc1cc(Nc2ncc3cc(C(=O)Nc4ccc(F)c(Cl)c4)n(C4CCCC4)c3n2)c(OC)cc1N(C)CCN(C)C | 10 | 8.1 |  |
| C=CC(=O)Nc1cc(Nc2ncc3cc(C(=O)Nc4ccccc4OC)n(C4CCCC4)c3n2)c(OC)cc1N(C)CCN(C)C | 18 | 7.5 |  |
| C=CC(=O)Nc1cc(Nc2ncc3cc(CNc4cccc(C)c4)n(C4CCCC4)c3n2)c(OC)cc1N(C)CCN(C)C | 61 | 48 |  |
| C=CC(=O)Nc1cc(Nc2ncc3cc(C(=O)Nc4ccnc(C)c4)n(C4CCCC4)c3n2)c(OC)cc1N(C)CCN(C)C | 8.3 | -10 |  |
| C=CC(=O)Nc1cc(Nc2ncc3cc(C(=O)Nc4cccc(OC)c4)n(C4CCCC4)c3n2)c(OC)cc1N1CCC(N(C)C)CC1 | 16 | 15 |  |
| C=CC(=O)Nc1cc(Nc2ncc3cc(C(=O)Nc4cccc(OC)c4)n(-c4ccccc4)c3n2)c(OC)cc1N(C)CCN(C)C | 6 | 4.1 |  |
| C=CC(=O)Nc1cc(Nc2ncc3cc(C(=O)Nc4ccccc4)n(C4CCCC4)c3n2)c(OC)cc1N1CCN(C)CC1 | 23 | 23 |  |
| C=CC(=O)Nc1cc(Nc2ncc3cc(C(=O)Nc4ccccc4)n(C4CCCC4)c3n2)ccc1N1CCN(C)CC1 | 37 | 21 |  |
| C=CC(=O)Nc1cc(Nc2ncc3cc(C(=O)Nc4cccc(C#N)c4)n(C4CCCC4)c3n2)c(OC)cc1N(C)CCN(C)C | 3 | 3.7 |  |
| C=CC(=O)Nc1cc(Nc2ncc3cc(C(=O)Nc4cccc(OC)c4)n(C4CCCC4)c3n2)c(OC)cc1N1CCOCC1 | 3.2 | 1.4 |  |
| C=CC(=O)Nc1cc(Nc2ncc3cc(CNc4cccc(OC)c4)n(C4CCCC4)c3n2)c(OC)cc1N(C)CCN(C)C | 56 | 41 |  |
| C=CC(=O)Nc1cc(Nc2ncc3cc(C(=O)Nc4ccnc(OC)c4)n(C4CCCC4)c3n2)c(OC)cc1N(C)CCN(C)C | 4.1 | -2.6 |  |

| SMILES | inhibition [1] [%] | inhibition [2] [%] | also measured |
| --- | --- | --- | --- |
| C=CC(=O)Nc1cc(Nc2ncc3cc(C(=O)Nc4cccc(OC)c4)n(C4CCCC4)c3n2)c(OC)cc1N(C)CCN(C)C | 17 | 11 |  |
| C=CC(=O)Nc1cc(Nc2ncc3cc(C(=O)NC4CCCc5ccccc54)n(C4CCCC4)c3n2)c(OC)cc1N(C)CCN(C)C (stereo not drawn) | 23 | 13 |  |
| C=CC(=O)Nc1cc(Nc2nccc(-c3cn(C)c4ccccc34)n2)c(OC)cc1N(C)CCN(C)C [OSIMERTINIB] |  |  | Activity [3]: 1.1%; Activity [4]: 90.3%; IC50 [5]: 784 nM; IC50 [6]: 3250 nM; Activity [7]: 4.75%; Activity [8]: 3.83%; IC50 [9]: […] |
| C=CC(=O)Nc1cc(Nc2ncc3cc(C(=O)Nc4cccc(N(C)C)c4)n(C4CCCC4)c3n2)c(OC)cc1N(C)CCN(C)C | 16 | 12 |  |
| C=CC(=O)Nc1cc(Nc2ncc3cc(C(=O)Nc4cccc(C(F)(F)F)c4)n(C4CCCC4)c3n2)c(OC)cc1N(C)CCN(C)C | 10 | 4.7 |  |
| C=CC(=O)Nc1cc(Nc2ncc3cc(C(=O)Nc4cccc(OC)c4)n(C4CCCCC4)c3n2)c(OC)cc1N(C)CCN(C)C | 4.9 | 1.1 |  |
| COc1cc(N2CCC(N3CCN(C)CC3)CC2)ccc1Nc1ncc2cc(CNc3ccccc3)n(C3CCCC3)c2n1 | 82 | 78 | IC50 [5]: 2980 nM; IC50 [6]: 206 nM; IC50 [10]: 55 nM; IC50 [9]: 3150 nM |
| C=CC(=O)Nc1cc(Nc2ncc3cc(C(=O)Nc4cccc(OC)c4)n(C)c3n2)c(OC)cc1N(C)CCN(C)C | -1.3 | -5 |  |
| C=CC(=O)Nc1cc(Nc2ncc3cc(C(=O)Nc4cccc(OC(F)(F)F)c4)n(C4CCCC4)c3n2)c(OC)cc1N(C)CCN(C)C | 0.6 | -1.9 |  |
| C=CC(=O)Nc1cc(Nc2ncc3cc(C(=O)NC4CCCCC4)n(C4CCCC4)c3n2)c(OC)cc1N(C)CCN(C)C | 6.5 | 4.8 |  |
| CN(C)CCN(C)c1ccc(Nc2ncc3cc(CNc4ccccc4)n(C4CCCC4)c3n2)cc1 | 90 | 88 | IC50 [5]: 426 nM; IC50 [6]: 248 nM; IC50 [10]: 304 nM; IC50 [9]: 1120 nM |
| C=CC(=O)Nc1cc(Nc2ncc3cc(C(=O)Nc4cccc(OC)c4)n(C(C)C)c3n2)c(OC)cc1N(C)CCN(C)C | 12 | 9.3 |  |
| C=CC(=O)Nc1cc(Nc2ncc3cc(CNc4c(C)cccc4C)n(C4CCCC4)c3n2)c(OC)cc1N(C)CCN(C)C | 40 | 23 |  |
| C=CC(=O)Nc1cc(Nc2ncc3cc(C(=O)Nc4cccc(OC)c4)n(C4CCCC4)c3n2)c(OC)cc1N1CCN(CCOC)CC1 | -0.3 | -2.3 |  |
| C=CC(=O)Nc1cc(Nc2ncc3cc(C(=O)Nc4ccccc4)n(C4CCCC4)c3n2)c(OC)cc1N1CCC(N2CCN(C)CC2)CC1 | 20 | 16 |  |
| C=CC(=O)Nc1cc(Nc2ncc3cc(CNc4cc(C)cc(C)c4)n(C4CCCC4)c3n2)c(OC)cc1N(C)CCN(C)C | -8.4 | -1.4 |  |
| C=CC(=O)Nc1cc(Nc2ncc3cc(C(=O)Nc4cccc(OC)c4)n(C4CC4)c3n2)c(OC)cc1N(C)CCN(C)C | 7.8 | 7 |  |
| COc1cc(N2CCC(N(C)C)CC2)ccc1Nc1ncc2cc(CNc3ccccc3)n(C3CCCC3)c2n1 | 83 | 80 | IC50 [5]: 1630 nM; IC50 [6]: 261 nM; IC50 [10]: 10 nM; IC50 [9]: 3080 nM |
| C=CC(=O)Nc1cc(Nc2ncc3cc(C(=O)Nc4ccccc4)n(C4CCCC4)c3n2)c(OC)cc1N(C)CCN(C)C | 26 | 18 |  |
